Among the data in patent US5420287A, “1,2 diarylcyclopentenyl compounds for the treatment of inflammation” (G. D. Searle & Co., priority 1994, dated 1995) are inhibition in vivo values, retold here.

This experiment deals with carrageenan foot edema. Briefly: Rat Carrageenan Foot Pad Edema Test. The class given is in vivo, Male Sprague-Dawley rats. The settings on record: @ 10 mg/kg body weight, oral, 3 h after carrageenan injection, read-out: RAT PAW EDEMA % Inhibition. (In general: Carrageenan injected into the paw causes an acute inflammation.)

Procedure: One hour later a subplantar injection of 0.1 mL of 1% solution of carrageenan/sterile 0.9% saline was administered and the volume of the injected foot was measured with a displacement plethysmometer connected to a pressure transducer with a digital indicator.

As for `CS(=O)(=O)c1ccc(C2=C(c3ccc(F)cc3)CCC2)cc1` [Example 1, 1-[2-(4-fluorophenyl)cyclopenten-1-yl]-4-(methylsulfonyl)benzene], the inhibition in vivo at 10 mg/kg came out at 33%.
